Results: patent publication US20020019394A1, “Bicyclic sulfonyl amino inhibitors of factor Xa” (priority 2000, published 2002)
Read-outs that look alike come from different tables or passages of the source.

Assays:
thrombin = thrombin (Homo sapiens, UniProt P00734); assay: Thrombin amidolytic assay (Chromozym TH)
Method: (§2) In the assays for thrombin, prothrombinase and factor Xa, a synthetic chromogenic substrate is added to a solution containing test compound and the enzyme of interest and the residual catalytic activity of that enzyme is determined spectrophotometrically. The IC50 of a compound is determined from the substrate turnover. […] The factor Xa and thrombin assays are performed at room temperature, in 0.02 M Tris.HCl buffer, pH 7.5, containing 0.15 M NaCl.

prothrombinase complex = prothrombinase complex (Homo sapiens, UniProt P00742); assay: Prothrombinase inhibition assay, plasma free system; format: biochemical
Method: The prothrombinase inhibition assay is performed in a plasma free system with modifications to the method described by Sinha, U. et al., Thromb. […] Specifically, the activity of the prothrombinase complex is determined by measuring the time course of thrombin generation using the p-nitroanilide substrate Chromozym TH. […] Aliquots from the complex-inhibitor mixture are added to prothrombin (1 nM) and Chromozym TH (0.1 mM). […] Eight different concentrations of inhibitor are assayed in duplicate. A standard curve of thrombin generation by an equivalent amount of untreated complex is used for determination of percent inhibition.

factor Xa = factor Xa (Homo sapiens, UniProt P00742); assay: Factor Xa amidolytic assay (chromogenic substrate S-2765)
Sequence of factor Xa (P00742 235-488 limits assumed): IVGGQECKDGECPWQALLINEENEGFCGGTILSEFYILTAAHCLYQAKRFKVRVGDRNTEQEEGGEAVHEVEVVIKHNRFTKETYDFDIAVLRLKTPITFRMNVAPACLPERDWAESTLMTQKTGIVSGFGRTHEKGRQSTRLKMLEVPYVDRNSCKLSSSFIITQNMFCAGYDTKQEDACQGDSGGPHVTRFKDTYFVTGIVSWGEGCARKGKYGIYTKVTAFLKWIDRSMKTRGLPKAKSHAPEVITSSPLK
Sequence of factor Xa (P00742 41-179 limits assumed): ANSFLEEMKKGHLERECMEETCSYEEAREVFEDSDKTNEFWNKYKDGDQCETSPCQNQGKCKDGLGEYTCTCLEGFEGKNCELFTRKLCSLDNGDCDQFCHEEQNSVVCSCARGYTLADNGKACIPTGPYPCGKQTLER
Method: as §2

APC = APC (Homo sapiens, UniProt P04070); assay: In vitro protease activity assay, APC; format: biochemical
Sequence of APC (P04070 212-450 limits assumed): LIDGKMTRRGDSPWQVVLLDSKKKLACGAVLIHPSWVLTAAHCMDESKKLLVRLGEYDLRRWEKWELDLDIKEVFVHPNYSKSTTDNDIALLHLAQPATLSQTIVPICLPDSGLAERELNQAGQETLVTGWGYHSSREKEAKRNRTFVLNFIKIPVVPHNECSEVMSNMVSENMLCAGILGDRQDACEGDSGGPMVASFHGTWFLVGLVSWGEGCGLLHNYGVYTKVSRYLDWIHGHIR
Sequence of APC (P04070 43-197 limits assumed): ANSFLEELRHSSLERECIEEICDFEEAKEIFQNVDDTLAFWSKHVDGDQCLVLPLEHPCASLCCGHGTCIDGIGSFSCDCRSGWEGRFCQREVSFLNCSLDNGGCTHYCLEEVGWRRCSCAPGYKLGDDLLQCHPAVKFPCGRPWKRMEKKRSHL
Text: (§1) Evaluation of the compounds of this invention is guided by in vitro protease activity assays (see below) and in vivo studies to evaluate antithrombotic efficacy, and effects on hemostasis and hematological parameters (see below).

PLASMIN = target: T1, PLASMIN (Homo sapiens, UniProt P00747); assay: In vitro protease activity assay, plasmin; format: biochemical
T1 construct: PLASMIN
T1 sequence (P00747 581-810 limits assumed, species assumed): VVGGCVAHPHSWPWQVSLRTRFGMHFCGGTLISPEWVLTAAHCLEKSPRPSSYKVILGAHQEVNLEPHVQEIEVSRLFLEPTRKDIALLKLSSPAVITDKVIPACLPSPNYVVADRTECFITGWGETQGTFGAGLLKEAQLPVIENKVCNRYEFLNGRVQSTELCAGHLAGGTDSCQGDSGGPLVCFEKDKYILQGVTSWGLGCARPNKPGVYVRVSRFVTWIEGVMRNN
T1 sequence (P00747 97-580 limits assumed, species assumed): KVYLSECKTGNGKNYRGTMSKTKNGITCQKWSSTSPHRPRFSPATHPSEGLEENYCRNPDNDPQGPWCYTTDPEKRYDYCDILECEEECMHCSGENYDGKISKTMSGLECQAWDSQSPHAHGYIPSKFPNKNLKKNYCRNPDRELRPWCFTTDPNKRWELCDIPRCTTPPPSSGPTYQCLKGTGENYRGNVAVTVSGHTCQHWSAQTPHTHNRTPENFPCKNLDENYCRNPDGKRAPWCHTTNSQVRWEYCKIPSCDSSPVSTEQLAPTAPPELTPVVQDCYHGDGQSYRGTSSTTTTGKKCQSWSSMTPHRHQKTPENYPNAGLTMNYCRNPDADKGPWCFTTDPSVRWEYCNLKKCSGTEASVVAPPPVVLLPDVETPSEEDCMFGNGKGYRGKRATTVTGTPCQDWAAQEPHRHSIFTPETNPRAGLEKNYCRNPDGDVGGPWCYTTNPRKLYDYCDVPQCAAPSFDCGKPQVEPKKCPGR
Text: as §1

TPA = TPA (Homo sapiens, UniProt P00750); assay: In vitro protease activity assay, TPA; format: biochemical
Sequence of TPA (P00750 36-562, species assumed): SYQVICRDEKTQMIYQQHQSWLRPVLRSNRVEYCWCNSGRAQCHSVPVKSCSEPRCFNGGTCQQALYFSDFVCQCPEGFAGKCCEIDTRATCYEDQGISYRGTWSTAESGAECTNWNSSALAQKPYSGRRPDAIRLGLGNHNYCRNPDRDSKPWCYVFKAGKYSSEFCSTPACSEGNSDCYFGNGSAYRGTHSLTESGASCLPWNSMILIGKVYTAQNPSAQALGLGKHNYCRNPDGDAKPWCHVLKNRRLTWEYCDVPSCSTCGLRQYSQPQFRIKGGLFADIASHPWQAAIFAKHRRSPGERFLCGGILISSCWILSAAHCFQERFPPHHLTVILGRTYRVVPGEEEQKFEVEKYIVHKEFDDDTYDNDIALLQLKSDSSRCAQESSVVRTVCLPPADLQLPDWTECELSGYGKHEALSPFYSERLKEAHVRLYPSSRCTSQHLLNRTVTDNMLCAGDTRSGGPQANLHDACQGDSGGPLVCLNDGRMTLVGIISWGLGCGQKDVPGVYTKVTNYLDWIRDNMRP
Text: as §1

[1] = Table 4, read-out: IC50 (nM) Prothrombinase
[2] = Table 6, read-out: IC50 (nM) Prothrombinase

Sequence of prothrombinase complex (P00742 235-488 limits assumed): as the sequence (P00742 235-488 limits assumed) above
Sequence of prothrombinase complex (P00742 41-179 limits assumed): as the sequence (P00742 41-179 limits assumed) above
Sequence of prothrombinase complex (P12259 29-737 partner limits assumed): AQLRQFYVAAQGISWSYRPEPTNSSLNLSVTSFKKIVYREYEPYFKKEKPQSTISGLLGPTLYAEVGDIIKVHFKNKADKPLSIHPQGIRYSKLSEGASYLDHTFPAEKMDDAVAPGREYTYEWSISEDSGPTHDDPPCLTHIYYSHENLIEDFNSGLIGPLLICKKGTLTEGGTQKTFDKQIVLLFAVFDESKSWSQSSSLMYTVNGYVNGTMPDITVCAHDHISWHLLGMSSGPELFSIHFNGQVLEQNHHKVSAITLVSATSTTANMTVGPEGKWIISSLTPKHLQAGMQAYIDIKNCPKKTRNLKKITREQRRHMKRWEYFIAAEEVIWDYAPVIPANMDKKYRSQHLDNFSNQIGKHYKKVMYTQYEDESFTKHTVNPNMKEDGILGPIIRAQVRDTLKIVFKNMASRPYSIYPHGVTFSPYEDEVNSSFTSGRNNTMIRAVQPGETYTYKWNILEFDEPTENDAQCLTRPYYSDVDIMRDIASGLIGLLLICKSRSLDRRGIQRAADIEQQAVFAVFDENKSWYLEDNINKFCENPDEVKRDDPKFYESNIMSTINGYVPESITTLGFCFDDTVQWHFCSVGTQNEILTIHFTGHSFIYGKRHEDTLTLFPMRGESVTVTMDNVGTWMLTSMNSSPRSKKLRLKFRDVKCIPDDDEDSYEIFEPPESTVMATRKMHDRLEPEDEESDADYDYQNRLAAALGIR
Sequence of prothrombinase complex (P12259 1574-2224 partner limits assumed): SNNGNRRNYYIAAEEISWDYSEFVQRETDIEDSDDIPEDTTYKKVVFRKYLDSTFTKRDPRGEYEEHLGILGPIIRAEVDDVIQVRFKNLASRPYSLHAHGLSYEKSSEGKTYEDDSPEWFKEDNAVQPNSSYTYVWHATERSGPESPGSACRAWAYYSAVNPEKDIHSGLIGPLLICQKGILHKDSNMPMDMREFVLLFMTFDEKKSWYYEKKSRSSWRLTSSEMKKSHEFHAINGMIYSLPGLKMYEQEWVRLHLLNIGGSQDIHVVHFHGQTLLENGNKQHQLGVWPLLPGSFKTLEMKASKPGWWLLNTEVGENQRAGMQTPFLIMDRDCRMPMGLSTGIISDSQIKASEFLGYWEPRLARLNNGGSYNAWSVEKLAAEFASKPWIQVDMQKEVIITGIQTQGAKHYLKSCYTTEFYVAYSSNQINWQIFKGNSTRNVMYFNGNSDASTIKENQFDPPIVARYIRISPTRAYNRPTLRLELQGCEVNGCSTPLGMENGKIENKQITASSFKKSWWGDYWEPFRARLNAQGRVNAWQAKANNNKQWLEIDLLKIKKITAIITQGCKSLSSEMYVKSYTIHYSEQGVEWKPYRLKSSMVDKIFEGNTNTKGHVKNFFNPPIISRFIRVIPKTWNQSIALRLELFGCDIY

| SMILES | IC50 (thrombin) [µM] | IC50 (factor Xa) [µM] | IC50 (prothrombinase complex; read-out: IIASE) [nM] | other results |
| --- | --- | --- | --- | --- |
| CC(=N)N1CCC(Oc2ccc(N(Cc3ccc4ccc(C(=N)N)cc4c3)S(C)(=O)=O)cc2)CC1 [Compound 2] | 95.2 | 0.0063 | – | IC50 (prothrombinase complex; [1]): 7 nM |
| CC(=N)N1CCC(Oc2ccc(N(Cc3cccc(-c4cccc(C(=N)N)c4)c3)S(C)(=O)=O)cc2)CC1 [Compound 3] | 133 | – | – | – |
| CC(=N)N1CCC(Oc2ccc(N(Cc3ccc(-c4cccc(C(=N)N)c4)cc3)S(C)(=O)=O)cc2)CC1 [Compound 12] | > 11 | 0.0252 | – | IC50 (prothrombinase complex; Table 3, read-out: IC50 (nM) Prothrombinase): 730 nM |
| CC(=N)N1CCC(Oc2ccc(N(Cc3cc4cc(C(=N)N)ccc4s3)S(C)(=O)=O)cc2)CC1 [Compound 13] | 30.9 | – | – | – |
| CC(=N)N1CCC(Oc2ccc(N(Cc3cc4cc(C(=N)N)ccc4n3C)S(C)(=O)=O)cc2)CC1 [Compound 15] | 11.8 | 0.0306 | – | IC50 (prothrombinase complex; [1]): 66.5 nM |
| CC(=N)N1CCC(Oc2ccc(N(Cc3cc(C)nn3-c3cccc(C(=N)N)c3)S(C)(=O)=O)cc2)CC1 [Compound 16] | > 11 | – | – | – |
| CC(=N)N1CCC(Oc2ccc(N(Cc3cc(C)n(-c4cccc(C(=N)N)c4)n3)S(C)(=O)=O)cc2)CC1 [Compound 17] | > 11 | – | – | – |
| CS(=O)(=O)N(Cc1ccc2ccc(C(=N)N)cc2c1)c1ccc(C(=O)N2CCC[C@H]2C(N)=O)cc1 [Compound 25] | 146 | 4.06 | – | IC50 (prothrombinase complex; Table 5, read-out: IC50 (nM) Prothrombinase): 95000 nM |
| CC(=N)N1CCC(Oc2ccc(N(Cc3cccc(-c4cccc(C(=N)N)c4)c3)S(=O)(=O)CC(=O)O)cc2)CC1 [Compound 41] | 39.2 | 0.0036 | – | IC50 (prothrombinase complex; [2]): 6.6 nM |
| CCOC(=O)CS(=O)(=O)N(Cc1cc2cc(C(=N)N)ccc2s1)c1ccc(OC2CCN(C(C)=N)CC2)cc1 [Compound 42] | 12 | 0.0091 | – | IC50 (prothrombinase complex; [2]): 8.4 nM |
| CC(=N)N1CCC(Oc2ccc(N(Cc3cc4cc(C(=N)N)ccc4s3)S(=O)(=O)CC(=O)O)cc2)CC1 [Compound 43] | 193 | 0.0035 | – | IC50 (prothrombinase complex; [2]): 7.6 nM |
| N=C(N)c1ccc2ccc(CN3c4ccc(OC5CCNCC5)cc4C=CS3(=O)=O)cc2c1 [Example 1] | 136 | 1.03 | 15800 | – |
| CC(=N)N1CCC(Oc2ccc3c(c2)C=CS(=O)(=O)N3Cc2ccc3ccc(C(=N)N)cc3c2)CC1 [Example 2] | 117 | 0.00641 | 64.6 | IC50 (APC): 1.88 µM; IC50 (PLASMIN): 2.35 µM; IC50 (TPA): 1.6 µM |
| N=C(N)c1ccc2ccc(CN3c4ccc(OC5CCN(C(=N)N)CC5)cc4C=CS3(=O)=O)cc2c1 [Example 3] | 16.7 | 0.0113 | 10 | IC50 (APC): 0.895 µM; IC50 (PLASMIN): 1.14 µM; IC50 (TPA): 1.21 µM |
| N=C(N)c1ccc2ccc(CN3c4ccc(OC5CCNCC5)cc4CCS3(=O)=O)cc2c1 [Example 4] | 256 | 1.18 | 2000 | – |
| NC(=O)c1ccc2ccc(CN3c4ccc(OC5CCNCC5)cc4CCS3(=O)=O)cc2c1 [Example 5] | – | 1.31 | 1290 | – |
| CC(=N)N1CCC(Oc2ccc3c(c2)CCS(=O)(=O)N3Cc2ccc3ccc(C(=N)N)cc3c2)CC1 [Example 6] | 116 | 0.012 | 12.2 | IC50 (APC): 3.85 µM; IC50 (PLASMIN): 2.36 µM; IC50 (TPA): 4.53 µM |
| N=C(N)c1ccc2ccc(CN3c4ccc(OC5CCN(C(=N)N)CC5)cc4CCS3(=O)=O)cc2c1 [Example 7] | 24.8 | 0.0153 | 33.2 | IC50 (APC): 3.37 µM; IC50 (PLASMIN): 2.23 µM; IC50 (TPA): 5.96 µM |
| CS(=O)(=O)N(Cc1ccc2ccc(C(=N)N)cc2c1)c1ccc(C(=O)N2CCCC2C(N)=O)cc1 (stereo not shown) [Example 24] | – | – | – | IC50 (factor Xa; read-out: XA, Examples 1-26 table): 3.44 µM |
